Assay results published in US20250059174A1, “Pharmaceutical Compounds and Compositions as C-Kit Kinase Inhibitors” (Enanta Pharmaceuticals, Inc., priority 2023, published 2025).

Target: Recombinant human c-KIT kinase (Homo sapiens (Human), UniProt P10721)
Assay: c-KIT kinase chemiluminescence assay (ADP-Glo)
Type: biochemical
Details: ATP 50 μM
Summary of the method: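 ADP formed by c-KIT on polyEY over 2 h at RT (after 30 min enzyme preincubation; Tris pH 7.5, MgCl2, BSA, DTT buffer) was detected by ADP-Glo luminescence. IC50 and Hill slope were fitted to control-normalized activity across compound concentrations.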

Recombinant human c-KIT kinase, sequence (P10721 26-976): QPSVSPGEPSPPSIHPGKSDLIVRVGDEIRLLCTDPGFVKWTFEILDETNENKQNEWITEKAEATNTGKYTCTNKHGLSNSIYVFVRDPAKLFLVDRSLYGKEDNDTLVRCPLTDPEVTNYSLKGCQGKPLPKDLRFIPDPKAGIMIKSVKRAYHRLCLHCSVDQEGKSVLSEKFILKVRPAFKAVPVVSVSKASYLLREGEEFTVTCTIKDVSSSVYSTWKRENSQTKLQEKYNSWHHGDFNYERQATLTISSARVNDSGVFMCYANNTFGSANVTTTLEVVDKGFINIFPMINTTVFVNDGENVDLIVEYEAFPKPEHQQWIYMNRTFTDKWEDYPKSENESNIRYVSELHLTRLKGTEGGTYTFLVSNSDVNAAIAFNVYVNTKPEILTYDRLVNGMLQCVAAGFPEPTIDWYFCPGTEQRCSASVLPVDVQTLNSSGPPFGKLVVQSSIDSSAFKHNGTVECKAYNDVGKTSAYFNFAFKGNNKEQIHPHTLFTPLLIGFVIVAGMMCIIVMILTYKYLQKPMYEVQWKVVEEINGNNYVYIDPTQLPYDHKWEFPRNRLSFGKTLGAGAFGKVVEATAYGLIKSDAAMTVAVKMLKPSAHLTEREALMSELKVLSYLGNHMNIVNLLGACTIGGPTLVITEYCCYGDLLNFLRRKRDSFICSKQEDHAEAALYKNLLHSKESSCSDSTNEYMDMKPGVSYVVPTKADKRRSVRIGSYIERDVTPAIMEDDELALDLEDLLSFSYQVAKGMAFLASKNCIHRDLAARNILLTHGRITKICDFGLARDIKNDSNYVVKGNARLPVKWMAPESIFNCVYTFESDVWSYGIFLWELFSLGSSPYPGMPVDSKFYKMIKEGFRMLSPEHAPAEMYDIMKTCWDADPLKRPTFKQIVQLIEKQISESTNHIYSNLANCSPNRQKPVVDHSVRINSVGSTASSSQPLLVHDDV

IC50	SMILES
100 to 1000 nM	Cc1ccc(-c2noc([C@H]3C[C@@H]3F)n2)cc1NC(=O)c1cnc(-c2ccc3c(c2)CCC(=O)N3)o1 [Example 308-15]
< 100 nM	Cc1ccc(-c2noc([C@H]3C[C@@H]3F)n2)cc1NC(=O)c1cnn2ccc(N3CC4(CN(C(=O)C5CC(F)(F)C5)C4)C3)cc12 [Example 241-12]
100 to 1000 nM	Cc1ncc(-c2noc(N3CC(F)(F)C3)n2)cc1NC(=O)c1cnn2ccc(N3CC4(COC4)C3)cc12 [Example 281-120]
100 to 1000 nM	O=C(Nc1cc(-c2noc(N3CC(F)(F)C3)n2)ccc1Cl)c1cnn2ccc(N3CC4(C3)CC(O)(C(F)F)C4)cc12 [Example 281-119]
< 100 nM	Cc1ccc(-c2noc(C3CN(C(=O)C4(F)CC4)C3)n2)cc1NC(=O)c1cnn2ccc(N3CC4(C3)CC(O)(C(F)F)C4)cc12 [Example 281-35]
< 100 nM	Cc1ncc(-c2noc([C@H]3C[C@@H](OC(F)(F)F)C3)n2)cc1NC(=O)c1cnn2ccc(N3CC4(C3)CC(O)(C(F)F)C4)cc12 [Example 281-45]
100 to 1000 nM	Cc1ccc(-c2noc(C3CCN(C(=O)[C@H]4C[C@@H]4F)CC3)n2)cc1NC(=O)c1cnn2ccc(N3CC4(COC4)C3)cc12 [Example 281-93]
< 100 nM	[2H]C([2H])([2H])c1ccc(-c2noc([C@H]3C[C@@H](OC(F)F)C3)n2)cc1NC(=O)c1cnn2ccc(N3CC4(COC4)C3)cc12 [Example 281-4]
100 to 1000 nM	Cc1ncc(-c2noc(C3CC(F)(F)C3)n2)cc1NC(=O)c1cnn2ccc(N3CC4(C3)CC(O)(C(F)F)C4)cc12 [Example 281-69]

Further lines, the compound ahead of its results:

SMILES	IC50
Cc1ccc(-c2ncc(C3CC3)cn2)cc1NC(=O)c1cnn2ccc(-c3c(C)nc(N)nc3C)cc12 [Example 365]	100 to 1000 nM
Cc1ccc(-c2noc([C@H]3C[C@@H]3F)n2)cc1NC(=O)c1ccnc2ccccc12 [Example 27]	> 1000 nM
Cc1ccc(-c2noc([C@H]3C[C@@H]3F)n2)cc1NC(=O)c1cnc2sccn12 [Example 30]	< 100 nM
Cc1ccc(-c2noc([C@H]3C[C@@H](OC(F)F)C3(C)C)n2)cc1NC(=O)c1cnn2ccc(N3CC4(CCN(CC(F)F)C4)C3)cc12 [Example 255]	< 100 nM
Cc1ccc(-c2noc([C@H]3C[C@@H]3F)n2)cc1NC(=O)c1cnn2ccc(-c3c(C)n[nH]c3C)cc12 [Example 161]	< 100 nM
Cc1ccc(-c2noc([C@H]3C[C@@H]3F)n2)cc1NC(=O)c1cnn2cc(Cl)c(-c3c(C)nn(CC(C)(C)O)c3C)cc12 [Example 165]	> 1000 nM
Cc1ccc(-c2cnc(N3CC(O)(C(F)(F)F)C3)nc2)cc1NC(=O)c1cnn2ccc(N3CC4(COC4)C3)cc12 [Example 354]	< 100 nM
Cc1ccc(-c2noc([C@H]3C[C@@H]3F)n2)cc1NC(=O)c1cnn2ccc(N3CC(C(F)(F)F)C3)cc12 [Example 225]	< 100 nM
Cc1ccc(-c2ncc(C(C)C)cn2)cc1NC(=O)c1cnn2ccc(N3CC4(COC4)C3)cc12 [Example 345]	< 100 nM
Cc1ccc(-c2noc([C@H]3C[C@@H]3F)n2)cc1NC(=O)c1cnn2ccc(-c3c(C)nn(CCN4CCOCC4)c3C)cc12 [Example 162]	< 100 nM
Cc1ccc(-c2noc([C@H]3C[C@@H]3F)n2)cc1NC(=O)c1cnn2ccc(-c3c(C)nc(Cl)nc3C)cc12 [Example 171-8]	100 to 1000 nM
Cc1ncc(-c2ccc(C3CC3)cn2)cc1NC(=O)c1cnn2ccc(N3CC4(C3)CC(O)(C(F)F)C4)cc12 [Example 356]	< 100 nM
O=C(Nc1cc(-c2noc([C@H]3C[C@@H](OC(F)(F)F)C3)n2)ccc1Cl)c1cnn2ccc(N3CC4(COC4)C3)cc12 [Example 264]	< 100 nM
Cc1ccc(-c2noc([C@H]3C[C@@H]3F)n2)cc1NC(=O)c1cnn2ccc(N3C[C@@H]4C[C@H]3CO4)cc12 [Example 200]	< 100 nM
Cc1nccc(-c2ccn3ncc(C(=O)Nc4cc(-c5noc([C@H]6C[C@@H]6F)n5)ccc4C)c3c2)n1 [Example 171]	< 100 nM
Cc1ccc(-c2noc([C@H]3C[C@@H](OC(F)F)C3)n2)cc1NC(=O)c1cnn2ccc(N3CC4CC(C3)O4)cc12 [Example 257]	< 100 nM

System: M-07e cells
Assay: M-07e cellular assay (SCF-mediated cell proliferation)
Type: cell-based
Details: Homo sapiens, 72 hours, CellTiter Glo
Procedure: M-07e cells (Creative Bioarray, CSC-C0249) which endogenously express human c-KIT were used to evaluate the effect of compounds on stem cell factor (SCF)-mediated cell proliferation. M-07e cells were cultured in growth media (RPMI+10% FBS+1% penicillin/streptomycin+10 ng/mL GM-CSF) at 5E5-1.5E6 cells/mL, replenishing media every 3-4 days. 1.5E4 cells were seeded per well in 384 well tissue culture treated plates in 20 μL assay media (RPMI+[…]+1% penicillin/streptomycin) without growth factor stimulation and incubated at 37° C. in a CO2 humidity-controlled incubator. Twenty-four hours later, three-fold serially diluted test compounds in media containing SCF (at the previously determined EC90) were added to the plated M-07e cells and incubated for an additional 72 hours. Cell viability was determined by adding 25 μL CellTiter Glo (Promega) to the cells and the luminescence was measured using a Perkin Elmer Envision plate reader. The EC50 was determined using GraphPad Prism. Percent cell growth was determined after normalizing the curve to the mean RLU high control (no compound control wells) at 100% and the mean RLU low control (no SCF control wells) at 0%.

SMILES	EC50
Cc1ccc(-c2ncc(C3CC3)cn2)cc1NC(=O)c1cnn2ccc(-c3c(C)nc(N)nc3C)cc12 [Example 365]	< 100 nM
Cc1ccc(-c2noc([C@H]3C[C@@H]3F)n2)cc1NC(=O)c1cnc(-c2ccc3c(c2)CCC(=O)N3)o1 [Example 308-15]	100 to 1000 nM
Cc1ccc(-c2noc([C@H]3C[C@@H]3F)n2)cc1NC(=O)c1cnn2ccc(N3CC4(CN(C(=O)C5CC(F)(F)C5)C4)C3)cc12 [Example 241-12]	< 100 nM
Cc1ncc(-c2noc(N3CC(F)(F)C3)n2)cc1NC(=O)c1cnn2ccc(N3CC4(COC4)C3)cc12 [Example 281-120]	100 to 1000 nM
Cc1ccc(-c2noc([C@H]3C[C@@H]3F)n2)cc1NC(=O)c1ccnc2ccccc12 [Example 27]	> 1000 nM
Cc1ccc(-c2noc([C@H]3C[C@@H]3F)n2)cc1NC(=O)c1cnc2sccn12 [Example 30]	100 to 1000 nM
Cc1ccc(-c2noc([C@H]3C[C@@H](OC(F)F)C3(C)C)n2)cc1NC(=O)c1cnn2ccc(N3CC4(CCN(CC(F)F)C4)C3)cc12 [Example 255]	100 to 1000 nM
O=C(Nc1cc(-c2noc(N3CC(F)(F)C3)n2)ccc1Cl)c1cnn2ccc(N3CC4(C3)CC(O)(C(F)F)C4)cc12 [Example 281-119]	< 100 nM
Cc1ccc(-c2noc(C3CN(C(=O)C4(F)CC4)C3)n2)cc1NC(=O)c1cnn2ccc(N3CC4(C3)CC(O)(C(F)F)C4)cc12 [Example 281-35]	< 100 nM
Cc1ncc(-c2noc([C@H]3C[C@@H](OC(F)(F)F)C3)n2)cc1NC(=O)c1cnn2ccc(N3CC4(C3)CC(O)(C(F)F)C4)cc12 [Example 281-45]	< 100 nM
Cc1ccc(-c2noc([C@H]3C[C@@H]3F)n2)cc1NC(=O)c1cnn2ccc(-c3c(C)n[nH]c3C)cc12 [Example 161]	< 100 nM
Cc1ccc(-c2noc([C@H]3C[C@@H]3F)n2)cc1NC(=O)c1cnn2cc(Cl)c(-c3c(C)nn(CC(C)(C)O)c3C)cc12 [Example 165]	100 to 1000 nM
Cc1ccc(-c2noc(C3CCN(C(=O)[C@H]4C[C@@H]4F)CC3)n2)cc1NC(=O)c1cnn2ccc(N3CC4(COC4)C3)cc12 [Example 281-93]	100 to 1000 nM
Cc1ccc(-c2cnc(N3CC(O)(C(F)(F)F)C3)nc2)cc1NC(=O)c1cnn2ccc(N3CC4(COC4)C3)cc12 [Example 354]	< 100 nM
Cc1ccc(-c2noc([C@H]3C[C@@H]3F)n2)cc1NC(=O)c1cnn2ccc(N3CC(C(F)(F)F)C3)cc12 [Example 225]	100 to 1000 nM
Cc1ccc(-c2ncc(C(C)C)cn2)cc1NC(=O)c1cnn2ccc(N3CC4(COC4)C3)cc12 [Example 345]	< 100 nM
[2H]C([2H])([2H])c1ccc(-c2noc([C@H]3C[C@@H](OC(F)F)C3)n2)cc1NC(=O)c1cnn2ccc(N3CC4(COC4)C3)cc12 [Example 281-4]	< 100 nM
Cc1ccc(-c2noc([C@H]3C[C@@H]3F)n2)cc1NC(=O)c1cnn2ccc(-c3c(C)nn(CCN4CCOCC4)c3C)cc12 [Example 162]	< 100 nM
Cc1ccc(-c2noc([C@H]3C[C@@H]3F)n2)cc1NC(=O)c1cnn2ccc(-c3c(C)nc(Cl)nc3C)cc12 [Example 171-8]	100 to 1000 nM
Cc1ncc(-c2ccc(C3CC3)cn2)cc1NC(=O)c1cnn2ccc(N3CC4(C3)CC(O)(C(F)F)C4)cc12 [Example 356]	< 100 nM
O=C(Nc1cc(-c2noc([C@H]3C[C@@H](OC(F)(F)F)C3)n2)ccc1Cl)c1cnn2ccc(N3CC4(COC4)C3)cc12 [Example 264]	< 100 nM
Cc1ccc(-c2noc([C@H]3C[C@@H]3F)n2)cc1NC(=O)c1cnn2ccc(N3C[C@@H]4C[C@H]3CO4)cc12 [Example 200]	< 100 nM
Cc1nccc(-c2ccn3ncc(C(=O)Nc4cc(-c5noc([C@H]6C[C@@H]6F)n5)ccc4C)c3c2)n1 [Example 171]	< 100 nM
Cc1ncc(-c2noc(C3CC(F)(F)C3)n2)cc1NC(=O)c1cnn2ccc(N3CC4(C3)CC(O)(C(F)F)C4)cc12 [Example 281-69]	< 100 nM
Cc1ccc(-c2noc([C@H]3C[C@@H](OC(F)F)C3)n2)cc1NC(=O)c1cnn2ccc(N3CC4CC(C3)O4)cc12 [Example 257]	100 to 1000 nM
